The values below come from PubChem BioAssay (NCI).

Several values for one entry are separate records, joined by “and”; a condition that tells them apart may be missing. Equal values may be shown once.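 Where inhibition never reached the appropriate level, the endpoint shown equals the highest concentration tested. Otherwise, values were interpolated linearly from a five-concentration, 48-hour dose response in 96-well plates. Abbreviation: GI50, concentration required for 50% inhibition of growth. TGI: total growth inhibition.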

Assay in all cases: DTP human tumour cell line panel, 48 h
Assay [1] concerns 786-0 renal.
For assay [2], the system named is A498 renal.
The subject of assay [3] is BT-549 breast.
The subject of assay [4] is HCT-116 colon.
Assay [5] has as its system HOP-92 NSCLC.
Assay [6] has as its system K-562 leukemia.
The subject of assay [7] is MDA-MB-435.
In assay [8] the test system is NCI-H23 lung.
Assay [9] concerns SNB-75 CNS.
The test system of assay [10] is UO-31 renal.

Consider `CNC(=O)CC1NC(=O)c2csc(n2)-c2ccc(-c3nc(C4=NC(C(=O)N5CCCC5C(N)=O)CO4)cs3)nc2-c2csc(n2)-c2csc(n2)C(C(C)C)NC(=O)CNC(=O)c2csc(n2)C(C(C)C)NC(=O)c2nc1sc2C` (stereo unspecified), for which the GI50 in assay [1], in [2], in [3], in [4], in [5] and in assay [6] was above 25 µM in each case. Also, the GI50 (usually the concentration at which growth is held to half of that of the control) is below 0.001 µM in [7], above 25 µM in [8], above 25 µM in assay [9] and above 25 µM in assay [10]. Further, the TGI (as a rule, the concentration giving total growth inhibition) in assay [1] is above 25 µM; in [2], 5.08 µM and > 25 µM; in [3], 4.5 µM and > 25 µM; in assay [4], above 25 µM; in [5], above 25 µM; in assay [6], above 25 µM. For the same molecule, the total growth inhibition concentration (TGI) in [10] is above 25 µM.
Turning to `COc1cccc(OCCCN)c1-c1cc(Nc2cnc(C#N)cn2)n[nH]1`, the GI50 in [1] was 0.00328 µM; in assay [2] it was 0.00476 µM; in assay [3], 0.0797 µM and 0.0856 µM; in [4], 0.105 µM and 0.236 µM; in assay [5], below 0.0166 µM; in assay [6], 0.00444 µM. The GI50 in [7] was 0.00423 µM; in assay [8], 0.00479 µM and < 0.0109 µM; in [9], 2.07 µM; in [10], 0.0279 µM and 0.0321 µM. In addition, the TGI in assay [1] was 0.706 µM; in assay [2], 0.23 µM and < 0.0269 µM; in [3] it was 8.2 µM; in [4] it was 12.9 µM; in [5], 8.76 µM; in [6], 12.8 µM. Moreover, the TGI was 1.23 µM in assay [7], 8.88 µM in [8] and 13.9 µM in [9].
Take `C=C(C)[C@@H]1CC[C@]2(C)[C@H](CC=C3[C@@H]4[C@@H](C)[C@H](C)CC[C@]4(C(N)=O)CC[C@]32C)[C@@]1(C)CCC#N`: the GI50 in [1] was 2.26 µM; in [2], 11 µM; in assay [3], 4.4 µM; in assay [4], 15.6 µM; in assay [5] it was 2.57 µM; in assay [6], 3.38 µM. In addition, the GI50 in assay [7] was 4.36 µM; in assay [8], 5.72 µM; in [9], 3.57 µM; in assay [10] it was 3.46 µM. Besides, the TGI in assay [1] was 5.75 µM; in assay [2] it was 44.5 µM; in assay [3] it was 18 µM; in assay [4], 29.9 µM; in assay [5], 9.05 µM; in assay [6], above 100 µM. For the same molecule, the TGI was above 100 µM in [7], above 100 µM in assay [8], above 100 µM in assay [9] and 26.1 µM in assay [10].
As for `Nc1c([N+](=O)[O-])cc2c3c(cccc13)CC2`, the TGI in [1], in assay [2], in assay [3], in [4], in assay [5] and in assay [6] was above 100 µM throughout. In addition, the TGI in assay [7], in assay [8], in assay [9] and in assay [10] was above 100 µM each time.
Take `Cc1cc(NCc2cc(Nc3ccnc4cc(Cl)ccc34)ccc2F)nc(N2CCN(C)CC2)n1`: the GI50 in assay [1] was 1.44 µM; in assay [2], 1.54 µM; in [3], 1.77 µM; in assay [4] it was 1.25 µM; in assay [5], 1.35 µM; in assay [6] it was 0.386 µM. In addition, the GI50 in assay [7] was 1.52 µM; in assay [8] it was 2.1 µM; in assay [9] it was 1.21 µM; in assay [10], 1.38 µM. Further, the TGI in assay [1] amounted to 2.88 µM; in assay [2] it was 3.22 µM; in assay [3], 3.65 µM; in assay [4], 2.88 µM; in [5], 3.52 µM; in [6] it was 2.11 µM. Further, the TGI in assay [7] was 2.96 µM; in assay [8], 6.54 µM; in assay [9], 3.16 µM; in assay [10] it was 3.11 µM.
As for `CC(C)COCC(CN(Cc1ccccc1)c1ccccc1)N1CCCC1` (stereo unspecified), the GI50 in assay [1] was 3.46 µM; in assay [2], 1.03 µM; in assay [3], 5.75 µM; in [4] it was 2.52 µM; in assay [5], 1.66 µM; in assay [6] it was 3.43 µM. Besides, the GI50 in [7] was 3.46 µM; in [8] it was 2.82 µM; in [9], 3.47 µM; in assay [10] it was 1.96 µM. Also, the TGI in [1] was 12.8 µM; in assay [2] it was 10.4 µM; in assay [3], 19 µM; in assay [4] it was 10.4 µM; in [5] it was 6.88 µM; in assay [6] it was 10.3 µM. The TGI in assay [7] stood at 13.8 µM; in assay [8], 14.6 µM; in [9], 17.6 µM; in [10], 13.1 µM.
Turning to `O=C1C2C(c3ccccc3)NC(c3ccccc3)C1C(c1ccccc1)NC2c1ccccc1` (stereo unspecified), the TGI in assay [1], in assay [2], in [3], in [4], in assay [5] and in assay [6] was above 100 µM throughout. The TGI in [7], in [8], in assay [9] and in assay [10] was above 100 µM in each case.
In the case of `O=P(CCCCP(=O)(c1ccccc1)c1ccccc1)(c1ccccc1)c1ccccc1.[Cl][Sn]([Cl])([c]1ccccc1)[c]1ccccc1`, the GI50 is 1.07 µM in assay [1]; 2 µM in assay [2]; 1.79 µM in assay [3]; 1.71 µM in assay [4]; 1.56 µM in assay [5]; 0.444 µM in assay [6]. Further, the GI50 in assay [7] was 1.77 µM; in [8] it was 1.48 µM; in [9], 1.57 µM; in [10], 1.68 µM. The TGI is 2.48 µM in [1]; 3.76 µM in assay [2]; 3.86 µM in [3]; above 100 µM in [4]; 3.18 µM in assay [5]; above 100 µM in assay [6]. Moreover, the TGI is 3.91 µM in assay [7], 3.48 µM in assay [8], 3.29 µM in assay [9] and 3.19 µM in assay [10].
